# Laboratory results taken from US11155844B2, “Process for the production of ortho-aminobenzoic acid and/or aniline from fermentable substrate using recombinant yeast” (Covestro Deutschland AG, priority 2015, dated 2021).
# Experiment: solubility of oAB in water depending on the pH
# Assay type: physicochemical
# Details: plasma or biological fluid; pH between 3.0 and 4.0; fermentation broth; read-out: oAB remaining dissolved at the solubility minimum
compound,measurement,value
"Nc1ccccc1C(=O)O [oAB, 2-aminobenzoic acid]",solubility,~5000 µg/mL
